Experimental data: patent publication US20240279207A1, “SUBSTITUTED ACYL SULFONAMIDES FOR TREATING CANCER” (The Broad Institute, Inc., priority 2020, published 2024)
Read-outs that look alike come from different tables or passages of the source.

Legend:
[1] = target: T1, Recombinant human His-tagged Kat6a protein (amino acids 194-810) (Homo sapiens, UniProt Q92794); experiment: Kat6a activity assay (TR-FRET, acetylation of Histone-H4-derived peptide); type: biochemical; conditions: 60 mins at 22° C., 220 nM H4 peptide, 600 nM Acetyl Coenzyme A, read-out: KAT6A - DPF/HAT domain IC50 [mol/l] (arithmetic mean)
T1 construct: Kat6a protein (amino acids 194-810); His
Method: Kat6a inhibitory activities of the compounds described in the present invention were quantified using a Fluorescence Resonance Energy Transfer (TR-FRET) assay which measures acetylation of a synthetic, biotinylated Histone-H4-derived peptide by the enzyme.
In this case 50 nl DMSO were used instead of compounds. […] IC50 values were determined by regression analysis based on a 4 parameter equation (minimum, maximum, ICM, Hill; Y=Max+(Min−Max)/(1+(X/ICso) Hill) using the Screener Software (Genedata).

[2] = system: ESR1 transcription in MVLN cells; experiment: MVLN reporter assay: repression of ESR1 transcription (luciferase signal); type: cell-based; conditions: Homo sapiens, luciferase signal after 24 h, read-out: MVLN reporter assay, IC50 [M] (arithmetic mean)
Source text: KAT6A controls transcription of the ESR1 gene in breast cancer cells. Compound treatment that interferes with this mechanism was quantified using MVLN cells. These cells constitutively express the ER and are stably transfected with the luciferase (LUC) reporter gene and the corresponding hormone responsive element derived from the 5′-flanking region of the Xenopus Vitellogenin A2 gene (Pons et al., 1990, Demirpense et al., 1993, Joyeux et al., 1993). The repressive effect on ERα transcription activity of a test chemical is directly related to the luciferase measured in the lysate of treated MVLN cells. […] Each sample was prepared as duplicate and rim wells were excluded. For luciferase signal determination 100 μl of a 1:1 mixture of Steadylite plus (Perkin Elmer; 6016759) and assay medium was added after 24 h for 15 minutes and measured in Victor X3 (Perkin Elmer). To exclude any effects caused by cell loss during the treatment, cell density was determined using Alamar Blue (Invitrogen; DAL1100). Prior to the luciferase measurement 10 μl Alamar Blue were added to each well and the plates were incubated for 2 h in the incubator. Then fluorescence was measured with Victor X3 (Perkin Elmer) at 530 nm/590 nm.

T1 sequence (Q92794 194-810): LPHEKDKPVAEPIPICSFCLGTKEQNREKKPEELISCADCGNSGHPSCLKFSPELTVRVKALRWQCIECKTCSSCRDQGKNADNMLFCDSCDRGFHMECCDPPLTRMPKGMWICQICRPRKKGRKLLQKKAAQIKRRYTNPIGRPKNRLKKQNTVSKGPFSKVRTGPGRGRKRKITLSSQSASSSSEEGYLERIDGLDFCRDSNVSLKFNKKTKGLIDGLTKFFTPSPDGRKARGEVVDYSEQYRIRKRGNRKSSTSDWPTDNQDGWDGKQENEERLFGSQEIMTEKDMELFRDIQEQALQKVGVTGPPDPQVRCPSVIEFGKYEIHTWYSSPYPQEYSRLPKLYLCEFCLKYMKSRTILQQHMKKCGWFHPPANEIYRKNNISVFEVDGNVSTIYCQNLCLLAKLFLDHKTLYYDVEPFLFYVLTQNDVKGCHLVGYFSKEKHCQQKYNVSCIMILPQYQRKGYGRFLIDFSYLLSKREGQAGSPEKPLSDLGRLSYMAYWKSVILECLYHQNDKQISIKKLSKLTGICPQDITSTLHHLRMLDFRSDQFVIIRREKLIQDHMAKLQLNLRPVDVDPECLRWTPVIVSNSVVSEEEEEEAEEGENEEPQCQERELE

| IC50 [1] [nM] | IC50 ([2]; MVLN, 24 h) [M] | Structure (SMILES) | IC50 [2] [M] |
| --- | --- | --- | --- |
| 18.9 | 1.66e-07 | CC(Oc1ccccc1S(=O)(=O)NC(=O)c1cc2c(F)cc(N3CCC3)cc2o1)C(F)(F)F (racemic) [Example 13, 6-(Azetidin-1-yl)-4-fluoro-N-(2-{[-1,1,1-trifluoropropan-2-yl]oxy}benzene-1-sulfonyl)-1-benzofuran-2-carboxamide (rac)] |  |
| 139 | 1.29e-06 | CC(O)c1ccc(Cl)c(S(=O)(=O)NC(=O)c2cc3c(F)cc(N4CCC4)cc3o2)c1 (racemic) [Example 100, 6-(Azetidin-1-yl)-N-[2-chloro-5-(1-hydroxyethyl)benzene-1-sulfonyl]-4-fluoro-1-benzofuran-2-carboxamide (rac)] |  |
| 1120 | > 2e-05 | CCOc1ccccc1S(=O)(=O)NC(=O)c1cc2c(F)cc(N3CCC3CNC(=O)OC)cc2o1 (racemic) [Example 105, Methyl {[1-{2-[(2-ethoxybenzene-1-sulfonyl)carbamoyl]-4-fluoro-1-benzofuran-6-yl}azetidin-2-yl]methyl}carbamate (rac)] |  |
| 4070 | > 2e-05 | CCOc1ccccc1S(=O)(=O)NC(=O)c1cc2c(F)cc(N3CC[C@@H]3C(N)=O)cc2o1 (racemic) [Example 169, 1-{2-[(2-Ethoxybenzene-1-sulfonyl)carbamoyl]-4-fluoro-1-benzofuran-6-yl}azetidine-2-carboxamide (rac)] |  |
| 21 | 1.25e-07 | COc1ccc2cccnc2c1S(=O)(=O)NC(=O)c1cc2c(F)cc(N3CCC3)cc2o1 [Example 8, 6-(Azetidin-1-yl)-4-fluoro-N-(7-methoxyquinoline-8-sulfonyl)-1-benzofuran-2-carboxamide] |  |
| 21.2 | 1.34e-07 | Cc1ccc(OC2CCCC2)c(S(=O)(=O)NC(=O)c2cc3c(F)cc(N4CCC4)cc3o2)c1 [Example 9, 6-(Azetidin-1-yl)-N-[2-(cyclopentyloxy)-5-methylbenzene-1-sulfonyl]-4-fluoro-1-benzofuran-2-carboxamide] |  |
| 75.2 | 1.45e-07 | CN(C)c1ccccc1S(=O)(=O)NC(=O)c1cc2c(F)cc(N3CCC3)cc2o1 [Example 11, 6-(Azetidin-1-yl)-N-[2-(dimethylamino)benzene-1-sulfonyl]-4-fluoro-1-benzofuran-2-carboxamide] |  |
| 42.7 | 1.63e-07 | O=C(NS(=O)(=O)c1cccc2c1OCCC2)c1cc2c(F)cc(N3CCC3)cc2o1 [Example 12, 6-(Azetidin-1-yl)-N-(3,4-dihydro-2H-1-benzopyran-8-sulfonyl)-4-fluoro-1-benzofuran-2-carboxamide] |  |
| 43.5 | 1.69e-07 | O=C(NS(=O)(=O)c1c(F)cccc1OC1CCC1)c1cc2c(F)cc(N3CCC3)cc2o1 [Example 16, 6-(Azetidin-1-yl)-N-[2-(cyclobutyloxy)-6-fluorobenzene-1-sulfonyl]-4-fluoro-1-benzofuran-2-carboxamide] |  |
| 24.2 | 1.92e-07 | CC1Cc2cccc(S(=O)(=O)NC(=O)c3cc4c(F)cc(N5CCC5)cc4o3)c2O1 (centres unmarked) [Example 18, 6-(Azetidin-1-yl)-4-fluoro-N-[2-methyl-2,3-dihydro-1-benzofuran-7-sulfonyl]-1-benzofuran-2-carboxamide] |  |
| 55.1 | 2.98e-07 | CC1(C)Cc2cccc(S(=O)(=O)NC(=O)c3cc4c(F)cc(N5CCC5)cc4o3)c2O1 [Example 21, 6-(Azetidin-1-yl)-N-(2,2-dimethyl-2,3-dihydro-1-benzofuran-7-sulfonyl)-4-fluoro-1-benzofuran-2-carboxamide] |  |
| 34 | 3.19e-07 | O=C(NS(=O)(=O)c1ccccc1I)c1cc2c(F)cc(N3CCC3)cc2o1 [Example 22, 6-(Azetidin-1-yl)-4-fluoro-N-(2-iodobenzene-1-sulfonyl)-1-benzofuran-2-carboxamide] |  |
| 28.6 | 2.72e-07 | CCOc1cccc(C(C)C)c1S(=O)(=O)NC(=O)c1cc2c(F)cc(N3CCC3)cc2o1 [Example 23, 6-(Azetidin-1-yl)-N-[2-ethoxy-6-(propan-2-yl)benzene-1-sulfonyl]-4-fluoro-1-benzofuran-2-carboxamide] |  |
| 46.7 | 3e-07 | O=C(NS(=O)(=O)c1c(F)cccc1C1CCC1)c1cc2c(F)cc(N3CCC3)cc2o1 [Example 24, 6-(Azetidin-1-yl)-N-(2-cyclobutyl-6-fluorobenzene-1-sulfonyl)-4-fluoro-1-benzofuran-2-carboxamide] |  |
| 148 | 3.26e-07 | CCOc1cccc(C)c1S(=O)(=O)NC(=O)c1cc2c(F)cc(N3CCC3)cc2o1 [Example 25, 6-(Azetidin-1-yl)-N-(2-ethoxy-6-methylbenzene-1-sulfonyl)-4-fluoro-1-benzofuran-2-carboxamide] |  |
| 49.6 | 3.54e-07 | COc1ccc(Cl)c(C)c1S(=O)(=O)NC(=O)c1cc2c(F)cc(N3CCC3)cc2o1 [Example 27, 6-(Azetidin-1-yl)-N-(3-chloro-6-methoxy-2-methylbenzene-1-sulfonyl)-4-fluoro-1-benzofuran-2-carboxamide] |  |
| 136 | 3.56e-07 | CC(C)Oc1cccc(C(F)(F)F)c1S(=O)(=O)NC(=O)c1cc2c(F)cc(N3CCC3)cc2o1 [Example 28, 6-(Azetidin-1-yl)-4-fluoro-N-{2-[(propan-2-yl)oxy]-6-(trifluoromethyl)benzene-1-sulfonyl}-1-benzofuran-2-carboxamide] |  |
| 49.7 | 3.79e-07 | CC(C)Oc1cccc(Cl)c1S(=O)(=O)NC(=O)c1cc2c(F)cc(N3CCC3)cc2o1 [Example 29, 6-(Azetidin-1-yl)-N-{2-chloro-6-[(propan-2-yl)oxy]benzene-1-sulfonyl}-4-fluoro-1-benzofuran-2-carboxamide] |  |
| 24.7 | 4.18e-07 | CC(C)c1ccc(C(C)C)c(S(=O)(=O)NC(=O)c2cc3c(F)cc(N4CCC4)cc3o2)c1 [Example 30, 6-(Azetidin-1-yl)-N-[2,5-di(propan-2-yl)benzene-1-sulfonyl]-4-fluoro-1-benzofuran-2-carboxamide] |  |
| 34.9 | 5.02e-07 | CCCOc1cccc(CCC)c1S(=O)(=O)NC(=O)c1cc2c(F)cc(N3CCC3)cc2o1 [Example 31, 6-(Azetidin-1-yl)-4-fluoro-N-(2-propoxy-6-propylbenzene-1-sulfonyl)-1-benzofuran-2-carboxamide] |  |
| 34.2 | 5.11e-07 | Cc1ccc(C(C)C)cc1S(=O)(=O)NC(=O)c1cc2c(F)cc(N3CCC3)cc2o1 [Example 32, 6-(Azetidin-1-yl)-4-fluoro-N-[2-methyl-5-(propan-2-yl)benzene-1-sulfonyl]-1-benzofuran-2-carboxamide] |  |
| 73.5 | 5.37e-07 | CCc1cccc(OCC2CC2)c1S(=O)(=O)NC(=O)c1cc2c(F)cc(N3CCC3)cc2o1 [Example 33, 6-(Azetidin-1-yl)-N-[2-(cyclopropylmethoxy)-6-ethylbenzene-1-sulfonyl]-4-fluoro-1-benzofuran-2-carboxamide] |  |
| 59.6 | 5.79e-07 | CCc1ccc(C)c(S(=O)(=O)NC(=O)c2cc3c(F)cc(N4CCC4)cc3o2)c1 [Example 34, 6-(Azetidin-1-yl)-N-(5-ethyl-2-methylbenzene-1-sulfonyl)-4-fluoro-1-benzofuran-2-carboxamide] |  |
| 42.1 | 6.09e-07 | Cc1ccc(S(=O)(=O)NC(=O)c2cc3c(F)cc(N4CCC4)cc3o2)c(OC(F)F)c1 [Example 35, 6-(Azetidin-1-yl)-N-[2-(difluoromethoxy)-4-methylbenzene-1-sulfonyl]-4-fluoro-1-benzofuran-2-carboxamide] |  |
| 367 | 6.04e-07 | CCc1csc(C)c1S(=O)(=O)NC(=O)c1cc2c(F)cc(N3CCC3)cc2o1 [Example 36, 6-(Azetidin-1-yl)-N-(4-ethyl-2-methylthiophene-3-sulfonyl)-4-fluoro-1-benzofuran-2-carboxamide] |  |
|  | 7.88e-07 | CC(C)Oc1cccc(Br)c1S(=O)(=O)NC(=O)c1cc2c(F)cc(N3CCC3)cc2o1 [Example 39, 6-(Azetidin-1-yl)-N-{2-bromo-6-[(propan-2-yl)oxy]benzene-1-sulfonyl}-4-fluoro-1-benzofuran-2-carboxamide] |  |
|  |  | CN(C(=O)Oc1ccccc1S(=O)(=O)NC(=O)c1cc2c(F)cc(N3CCC3)cc2o1)c1ccccc1 [Example 62, 2-{[6-(Azetidin-1-yl)-4-fluoro-1-benzofuran-2-carbonyl]sulfamoyl}phenyl methyl(phenyl)carbamate] | 6.43e-06 |
|  | 1.62e-07 | COc1ccc(C2=CCN(C(=O)OC(C)(C)C)CC2)cc1S(=O)(=O)NC(=O)c1cc2c(F)cc(N3CCC3)cc2o1 [Example 197, tert-butyl 4-(3-{[6-(azetidin-1-yl)-4-fluoro-1-benzofuran-2-carbonyl]sulfamoyl}-4-methoxyphenyl)-3,6-dihydropyridine-1(2H)-carboxylate] |  |
